Counter-ions that a name gives are not always drawn.
Legend:
[1] = Mass balance: excretion of total radioactivity in urine and feces; format: in vivo, human
Method: The urine samples were collected before orally administration and 0–2648 h after orally administration. […] In the process of collecting urine and feces samples of the six patients, because of the excretion particularity of the drug, the samples were not collected continuously every day, but once a week or every 10 days. In this case, the calculation of excretion rate during non-collected days was the multiplication of the first-day excretion rate after non-collected days by the number of non-collected days.
Levels of radioactivity in plasma, urine, and extracts of fecal samples were determined by mixing individual samples with 5 mL scintillation cocktail and determined by counting directly in a liquid scintillation counter (LSC). Blood, fecal homogenates, and post extraction solids were combusted with OX-501 Biological Sample Oxidizer, the ^14CO2 formed were trapped directly in 15 mL scintillation cocktail, followed by counting with LSC. Samples were assayed with a liquid scintillation counter for 5 min.

[2] = Metabolite radio-profiling (LC-RAM, LC-MS/MS) of plasma, urine and feces; format: in vivo, human
Method: An equal volume of 2, 4, 8, 12, 24, and 96 h plasma sample was pooled by time-point across subject 03 ~ 06, to give six pooled plasma samples for metabolite profiling. An appropriate volume (3x, v/v) of acetonitrile was added to a portion of the pooled plasma sample, followed by vortexing ca. 2 min. After storage in a refrigerator for ca. 30 min, the mixture was centrifuged at ca. 10000 g at 4 °C for 10 min. The supernatant was then separated from the PES, which was suspended with water, followed by addition of methanol (2x, v/v) twice. The three extracts were combined and evaporated to dryness under a nitrogen stream by an N-Evap evaporator at room temperature. The residues were reconstituted with an appropriate volume of methanol:water (1:1, v/v) and centrifuged at ca. 10000 g at 4 ℃ for 10 min. The supernatant was subjected to HPLC radio-profiling.
Four pooled human urine samples (subject 03 ~ 06) were pooled from 0 to 432 h based on equal volume ratios from the individual patients across time intervals. In addition, three pooled urine samples (0–48, 48–120 and 360–432 h) (subjects 03–06) were prepared by pooling human urine samples across subjects and time points. Portion of the pooled urine sample was evaporated to a small volume under a nitrogen stream and extracted with methanol (3x, v/v) followed by centrifuged at ca. 10000 g at 4 ℃ for 10 min. The supernatant was reconstituted with an appropriate volume of methanol:water (1:1, v/v) and centrifuged at ca. 10000 g at 4 ℃ for 10 min. The supernatant was subjected to HPLC radio-profiling.
Four human fecal samples (0–432 h) were prepared by pooling feces from individual subjects (Subjects 03–06). In addition, three pooled human fecal samples (0–48, 48–120 and 360–432 h) were prepared by pooling feces samples across subjects and time points. The pooled fecal homogenate was extracted with methanol (3x, v/v) and the mixture was vortexed, and centrifuged at ca. 10000 g at 4 ℃ for 10 min. The supernatant was then separated from the PES, which was suspended with water, followed by addition of methanol twice. The three extracts were combined and evaporated to dryness under a nitrogen stream by an N-Evap evaporator at room temperature. The residues were reconstituted with an appropriate volume of methanol:water (1:1, v/v) and centrifuged at ca. 10000 g at 4 ℃ for 10 min prior to analysis.
HPLC coupled with radioactivity monitor (LC-RAM) was used to isolate and quantitate [^14C] anlotinib and its metabolites. The plasma and fecal extracts as well as urine supernatants were subjected to HPLC separation, fractionation, and eluent collection. The radioactivity in each fraction was monitored by solid scintillation counting using a Packard TopCount® NXT™ Microplate Counter. The radio-profiles were then reconstructed using ARC® Convert software. The peak area of each radioactivity peak/region was integrated using ARC® Evaluation software, and the percent distribution of each peak/region was calculated (%TRA for plasma or %Dose for urine and feces).
Metabolites were characterized and/or identified by LC–MS/MS in conjunction with on-line radioactivity detection. Structures of metabolites were proposed by interpretation of the mass spectral fragmentation pattern, as well as chromatographic behaviors and metabolic pathways.

[3] = test system: human cytochrome P450 3A4; parameters: method as in PMID 29441353; details: in vitro; read-out: Half maximum inhibitory concentration; cited from earlier work

**Q.** For `COc1cc2c(Oc3ccc4[nH]c(C)cc4c3F)ccnc2cc1OCC1(N)CC1` [anlotinib, 1-[[4-(4-fluoro-2-methyl-1H-indol-5-yloxy)-6-methoxyquinolin-7-yl]oxy]methyl) cyclopropanamine dihydrochloride], which “Recovery of radioactivity in feces, average” value ([1]; 0 ~ 2648 h, six patients) is on record?
**A.** 48.52 % dose

**Q.** And the “Recovery of radioactivity in urine, average” value ([1]; 0 ~ 2648 h, six patients)?
**A.** 13.51 % dose

**Q.** And the “Total recovery rate of radioactivity (urine and feces), average” value ([1]; 0 ~ 2648 h, six patients)?
**A.** 62.03 % dose

**Q.** What about the “Feces (% dose)” value ([1]; Subject 01, 0 ~ 2648 h) of the same compound?
**A.** 50.73 % dose

**Q.** What about the “Total recovery rate (% dose)” value ([1]; Subject 01, 0 ~ 2648 h) of the same compound?
**A.** 66.24 % dose

**Q.** What about the “Urine (% dose)” value ([1]; Subject 01, 0 ~ 2648 h) of the same compound?
**A.** 15.51 % dose

**Q.** What about the “Feces (% dose)” value ([1]; Subject 02, 0 ~ 2648 h) of the same compound?
**A.** 42.51 % dose

**Q.** What about the “Total recovery rate (% dose)” value ([1]; Subject 02, 0 ~ 2648 h) of the same compound?
**A.** 60.96 % dose

**Q.** And the “Urine (% dose)” value ([1]; Subject 02, 0 ~ 2648 h)?
**A.** 18.45 % dose

**Q.** What about the “Feces (% dose)” value ([1]; Subject 03, 0 ~ 2648 h) of the same compound?
**A.** 38.93 % dose

**Q.** What about the “Total recovery rate (% dose)” value ([1]; Subject 03, 0 ~ 2648 h) of the same compound?
**A.** 50.92 % dose

**Q.** What about the “Urine (% dose)” value ([1]; Subject 03, 0 ~ 2648 h) of the same compound?
**A.** 11.99 % dose

**Q.** What about the “Feces (% dose)” value ([1]; Subject 04, 0 ~ 2648 h) of the same compound?
**A.** 56.80 % dose

**Q.** And the “Total recovery rate (% dose)” value ([1]; Subject 04, 0 ~ 2648 h)?
**A.** 69.09 % dose

**Q.** And the “Urine (% dose)” value ([1]; Subject 04, 0 ~ 2648 h)?
**A.** 12.29 % dose

**Q.** What about the “Feces (% dose)” value ([1]; Subject 05, 0 ~ 2648 h) of the same compound?
**A.** 59.44 % dose

**Q.** And the “Total recovery rate (% dose)” value ([1]; Subject 05, 0 ~ 2648 h)?
**A.** 71.86 % dose

**Q.** What about the “Urine (% dose)” value ([1]; Subject 05, 0 ~ 2648 h) of the same compound?
**A.** 12.42 % dose

**Q.** What about the “Feces (% dose)” value ([1]; Subject 06, 0 ~ 2648 h) of the same compound?
**A.** 42.69 % dose

**Q.** What about the “Total recovery rate (% dose)” value ([1]; Subject 06, 0 ~ 2648 h) of the same compound?
**A.** 53.08 % dose

**Q.** What about the “Urine (% dose)” value ([1]; Subject 06, 0 ~ 2648 h) of the same compound?
**A.** 10.39 % dose

**Q.** And the “Radioactive concentration in feces” value ([1]; after 404–432 h)?
**A.** 4876 DPM/ml

**Q.** What about the “Radioactive concentration in urine” value ([1]; after 404–432 h) of the same compound?
**A.** 279 DPM/ml

**Q.** And the “Drug-related component in feces, % of the dose” value ([2]; feces, pooled 0–432 h, subjects 03–06, single oral 14.15 mg/120 μCi)?
**A.** 5.64 % of the dose

**Q.** And the “Drug-related component in human plasma (radio-profile)” value ([2]; pooled plasma 2–96 h, subjects 03–06, listed as parent drug)?
**A.** major drug-related component

**Q.** What about the “Drug-related component in urine, % of the dose” value ([2]; urine, pooled 0–432 h, subjects 03–06, single oral 14.15 mg/120 μCi) of the same compound?
**A.** 0.73 % of the dose

**Q.** And the IC50 [3]?
**A.** 110 nM

From publication PMC7188728, “A phase I study investigation of metabolism, and disposition of [^14C]-anlotinib after an oral administration in patients with advanced refractory solid tumors” (Cancer Chemotherapy and Pharmacology, 2020)
